Test results: the supplement of paper PMC10307832

What was measured:
Assay in all cases: relative viability (nuclei count vs DMSO), 5 days (fraction); higher = more cells survive
[1] = compound: COCC[n+]1c2c(n(Cc3cnccn3)c1C)C(=O)c1ccccc1C2=O [YM155] + CC(=O)c1c(C)c2cnc(Nc3ccc(N4CCNCC4)cn3)nc2n(C2CCCC2)c1=O [Palbociclib] (partner 0.5 µM)
How it was run: (§1)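 A single step with final 0.05% Triton X-100, 1% formaldehyde and 1 ug/ml Hoechst fixed the cells and stained nuclei 5 days after treatment. Lung cancer cell lines in 1536-well plates had been treated by pin tool the day after seeding with one drug alone or a fixed anchor-drug dose plus five library-drug doses (not always all listed) in √10 steps, and nuclei were counted on 4× images. Relative viability is the ratio of nuclei in treated wells to nuclei in vehicle wells, taken as the median of duplicate plates.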

[2] = compound: CC(C)(C)c1cc(NC(=O)Nc2ccc(-c3cn4c(n3)sc3cc(OCCN5CCOCC5)ccc34)cc2)no1 [Quizartinib] + Cc1cc(Nc2cc(N3CCN(C)CC3)nc(Sc3ccc(NC(=O)C4CC4)cc3)n2)n[nH]1 [Tozasertib] (partner 0.1 µM)
How it was run: as §1

[3] = compound: COCC[n+]1c2c(n(Cc3cnccn3)c1C)C(=O)c1ccccc1C2=O [YM155] + Cc1cc(Nc2cc(N3CCN(C)CC3)nc(Sc3ccc(NC(=O)C4CC4)cc3)n2)n[nH]1 [Tozasertib] (partner 0.1 µM)
How it was run: as §1

[4] = compound: CC(C)(C)c1cc(NC(=O)Nc2ccc(-c3cn4c(n3)sc3cc(OCCN5CCOCC5)ccc34)cc2)no1 [Quizartinib] + Nc1nc2[nH]cc(CCc3ccc(C(=O)N[C@@H](CCC(=O)O)C(=O)O)cc3)c2c(=O)[nH]1 [Pemetrexed] (partner 0.2 µM)
How it was run: as §1

[5] = compound: CC(C)(C)c1cc(NC(=O)Nc2ccc(-c3cn4c(n3)sc3cc(OCCN5CCOCC5)ccc34)cc2)no1 [Quizartinib] + O=C(CCCCCCC(=O)Nc1ccccc1)NO [Vorinostat] (partner 1 µM)
How it was run: as §1

[6] = compound: COCC[n+]1c2c(n(Cc3cnccn3)c1C)C(=O)c1ccccc1C2=O [YM155] + Nc1ncn([C@H]2C[C@H](O)[C@@H](CO)O2)c(=O)n1 [Decitabine] (partner 2 µM)
How it was run: as §1

Which results are given for NCI-H1648?
relative viability ([1]; first compound 0.006325 µM): 0.299; relative viability ([1]; first compound 0.02 µM): 0.306; relative viability ([1]; first compound 0.06325 µM): 0.295; relative viability ([2]; first compound 0.01 µM): 0.38; relative viability ([2]; first compound 0.03162 µM): 0.341; relative viability ([2]; first compound 0.1 µM): 0.585; relative viability ([3]; first compound 0.002 µM): 0.386; relative viability ([3]; first compound 0.006325 µM): 0.605; relative viability ([3]; first compound 0.02 µM): 0.586; relative viability ([3]; first compound 0.06325 µM): 0.427; relative viability ([4]; first compound 0.003162 µM): 0.617; relative viability ([4]; first compound 0.03162 µM): 0.552; relative viability ([4]; first compound 0.1 µM): 1.05; relative viability ([5]; first compound 0.003162 µM): 0.315; relative viability ([5]; first compound 0.03162 µM): 0.32; relative viability ([5]; first compound 0.1 µM): 0.927; relative viability ([6]; first compound 0.006325 µM): 0.593; relative viability ([6]; first compound 0.02 µM): 0.41; relative viability ([6]; first compound 0.06325 µM): 0.599
